{"source": "patent US11980633B2", "about": "“Method for treating cancer using a combination of DNA-damaging agents and DNA-PK inhibitors” (Vertex Pharmaceuticals Incorporated, priority 2016, dated 2024)", "format_in_all_cases": "cell-based, human", "key": {"[1]": {"tested_on": "pKAP1 and pH2AX levels in A549 cells", "assay": "pH2AX and pKAP1 immunoblot, Compound B-1 and etoposide in A549 lung cells", "conditions": "3 μM Compound B-1 + 10 μM etoposide; at 8 h", "quoted_text": "A 15-μL aliquot of each SDS-PAGE sample was loaded onto 12-lane 4 20% Tris-Glycine gels and the gels were run at 125v constant voltage until the dye front reached the bottom (approximately 2 h). Following electrophoresis, separated proteins in the gels were transferred to a nitrocellulose membrane. Transfer was carried out for 2 h at 1.5 A constant current in a cold room using a Hoefer transfer apparatus (Model TE42 or TE62, Hoefer Inc, Holliston, MA) according to manufacturer's instructions. […]"}, "[2]": {"tested_on": "pKAP1 and pH2AX levels in MDA-MB-436 and MDA-MB-468 breast cancer cells", "assay": "pKAP1 and pH2AX immunoblot, Compound B-2 and doxorubicin in MDA-MB-436 and MDA-MB-468 cells", "conditions": "1 μM Compound B-2 + 500 nM doxorubicin; at 8 h", "method": "(§1) Materials and Methods. The human cancer cell lines A549 (CCL-185), DU4475 (HTB-123), MDA-MB-436 (HTB-130), and MDA-MB-468 (HTB-132) were obtained from American Type Culture Collection (ATCC; Manassas, VA). A 10 mM stock solution of Compound B-1 or Compound B-2 was prepared in DMSO and stored at −20° C. Etoposide and doxorubicin were purchased from Sigma-Aldrich (St. Louis, MO).\nThe A549 human lung cancer cell line was purchased from ATCC and was cultured in DMEM supplemented with 10% fetal bovine serum, 1× non-essential amino acids and 1× Penicillin/Streptomycin (complete medium). Cells were maintained at a subconfluent state by passaging every 2-3 days. Human breast cancer cells lines DU4475, MDA-MB-436, and MDA-MB-468 were purchased from ATCC and cultured in DMEM supplemented with 10% fetal bovine serum, 1× Glutamax and Penicillin/Streptomycin. Cells were maintained at a subconfluent state by passaging every 2-3 days.\nCompound B-1 and Compound B-2 used in these experiments were not prepared as a co-crystals.\nBreast cancer cell lines grown in 24-well (Costar, catalog #3526) or 6-well (Costar, catalog #3516) tissue culture plates to 70-80% confluence were pre-incubated with 1 μM Compound B-2 or DMSO for 15 min. Doxorubicin was added to a final concentration of either 100 nM or 500 nM from a 1000× stock prepared in DMSO. Cells were then incubated for the indicated amount of time and harvested for analysis.\nCell Lysis and Western Blot Analysis. […]\nTo determine that enhancement of DNA damage by concurrent treatment of cells with Compound B-2 and doxorubicin was not specific to DU4475 cells, two additional breast cancer cell lines, MDA-MB-436 and MDA-MB-468, were also pre-incubated with 1 μM Compound B-2 for 15 min, followed by addition of 500 nM doxorubicin. Cells were harvested at various time points following doxorubicin addition and analyzed for levels of pKAP1 and pH2AX by immunoblotting."}, "[3]": {"tested_on": "pKAP1 and pH2AX levels in MDA-MB-468 breast cancer cells", "assay": "pKAP1 and pH2AX immunoblot, doxorubicin pulse (wash-out) with Compound B-2 in MDA-MB-468 cells", "conditions": "1 μM Compound B-2 + 500 nM doxorubicin pulse; beginning at 1 h doxorubicin exposure, harvested at 8 h", "method": "as §1\nThe A549 human lung cancer cell line was purchased from ATCC and was cultured in DMEM supplemented with 10% fetal bovine serum, 1× non-essential amino acids and 1× Penicillin/Streptomycin (complete medium). Cells were maintained at a subconfluent state by passaging every 2-3 days. Human breast cancer cells lines DU4475, MDA-MB-436, and MDA-MB-468 were purchased from ATCC and cultured in DMEM supplemented with 10% fetal bovine serum, 1× Glutamax and Penicillin/Streptomycin. Cells were maintained at a subconfluent state by passaging every 2-3 days. […]\nIn order to determine the effect of a pulse of doxorubicin in combination with a DNA-PK inhibitor on pKAP1 and pH2AX levels, which would more closely simulate an in vivo administration of doxorubicin, MDA-MB-468 breast cancer cells were pre-incubated with 1 μM Compound B-2 for 15 min, followed by addition of 500 nM doxorubicin. […] Cells were harvested 8 h from initial doxorubicin exposure, and analyzed for levels of pKAP1 and pH2AX by immunoblotting. […]"}}, "data": [{"smiles": "CNC(=O)c1ccnc2c([C@H](C)CNc3cc(-c4cnc(C)nc4)ncn3)cccc12", "note": "[Compound B-1]", "values": [{"measurement": "pH2AX level, max increase as compared to etoposide treatment alone", "setting": "[1]", "result": 2, "unit": "fold"}, {"measurement": "pKAP1 level, max increase as compared to etoposide treatment alone", "setting": "[1]", "result": 7, "unit": "fold"}]}, {"smiles": "[2H]c1nc(C)nc([2H])c1-c1cc(NC[C@@H](C)c2cccc3c(C(=O)NC)ccnc23)ncn1", "note": "[Compound B-2]", "values": [{"measurement": "pH2AX level, max enhancement vs doxorubicin alone", "setting": "[2]", "result": 1.5, "unit": "fold"}, {"measurement": "pKAP1 level, max enhancement vs doxorubicin alone", "setting": "[2]", "result": "3.5-4 fold"}, {"measurement": "pKAP1 and pH2AX levels vs doxorubicin alone", "setting": "[3]", "result": "enhanced levels"}]}]}
